Several values for one entry are separate records, joined by “and”; a condition that tells them apart may be missing. Equal entries are not always repeated. Toxic doses and inconclusive results are not listed. Rule as the data show it: active = T/C of 150% or more; inactive = T/C below 125%.
Tested on: L1210 leukemia ip in BDF1 mice, survival T/C
Assay: NCI In Vivo Anticancer Drug Screen. Data for tumor model L1210 Leukemia (intraperitoneal) in B6D2F1 (BDF1) mice
Conditions: endpoint: mean survival time, higher = longer survival
Method in brief: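 Survival endpoint. Drug-treated group vs vehicle group, expressed as T divided by C. Tumor passaged by transplantation.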

[1] = dose: 50.0 mg/kg/injection, schedule: Q01DX009 (ip), vehicle: saline with Tween-80

Measured: T/C

NC1=NC(Cc2ccccc2)N(c2ccc(Cl)cc2)C(N)=N1 (stereo not drawn)
inactive: dose: 14.0 mg/kg/injection, schedule: Q01DX009 (ip), vehicle: steriod suspending solution 98 % of control | dose: 24.0 mg/kg/injection, schedule: Q01DX009 (ip), vehicle: steriod suspending solution 98 % of control | dose: 39.0 mg/kg/injection, schedule: Q01DX009 (ip), vehicle: steriod suspending solution 98 % of control | dose: 65.0 mg/kg/injection, schedule: Q01DX009 (ip), vehicle: steriod suspending solution 96 % of control

CCOC(=O)C1(C(=O)O)CC2C(C)C=CC(C)C2C1 (stereo not drawn)
inactive: dose: 100.0 mg/kg/injection, schedule: Q04DX003 (ip), vehicle: Klucel (hydroxypropylcellulose) (HPC) 100 % of control | dose: 200.0 mg/kg/injection, schedule: Q04DX003 (ip), vehicle: Klucel (hydroxypropylcellulose) (HPC) 94 % of control | dose: 400.0 mg/kg/injection, schedule: Q04DX003 (ip), vehicle: Klucel (hydroxypropylcellulose) (HPC) 91 % of control

N#Cc1ccccc1CC(=O)c1ccccc1
inactive: dose: 50.0 mg/kg/injection, schedule: Q01DX001 (ip), vehicle: saline 101 % of control | dose: 100.0 mg/kg/injection, schedule: Q01DX001 (ip), vehicle: saline 97 % of control | dose: 200.0 mg/kg/injection, schedule: Q01DX001 (ip), vehicle: saline 93 % of control | dose: 400.0 mg/kg/injection, schedule: Q01DX001 (ip), vehicle: saline 100 % of control

Nc1ccc(CCc2ccccc2)cc1
inactive: [1] 97 % of control

C=C(C(=O)OC1CC2CCC(C1)N2C)c1ccccc1 (stereo not drawn)
inactive: dose: 1.25 mg/kg/injection, schedule: Q01DX Z (ip), vehicle: saline 90 % of control | dose: 1.25 mg/kg/injection, schedule: Q04DX003 (ip), vehicle: Klucel (hydroxypropylcellulose) (HPC) 113 % of control | dose: 2.5 mg/kg/injection, schedule: Q01DX Z (ip), vehicle: saline 105 % of control | dose: 2.5 mg/kg/injection, schedule: Q04DX003 (ip), vehicle: Klucel (hydroxypropylcellulose) (HPC) 101 % of control | dose: 5.0 mg/kg/injection, schedule: Q01DX Z (ip), vehicle: saline 97 % of control | dose: 5.0 mg/kg/injection, schedule: Q04DX003 (ip), vehicle: Klucel (hydroxypropylcellulose) (HPC) 107 % of control | dose: 10.0 mg/kg/injection, schedule: Q01DX001 (ip), vehicle: carboxymethylcellulose (CMC) 111 % of control | dose: 10.0 mg/kg/injection, schedule: Q04DX003 (ip), vehicle: Klucel (hydroxypropylcellulose) (HPC) 106 % of control | dose: 20.0 mg/kg/injection, schedule: Q01DX001 (ip), vehicle: carboxymethylcellulose (CMC) 93 % of control

CC1=NCCO1
inactive: dose: 100.0 mg/kg/injection, schedule: Q04DX003 (ip), vehicle: saline 102 % of control | dose: 200.0 mg/kg/injection, schedule: Q04DX003 (ip), vehicle: saline 105 % of control | dose: 400.0 mg/kg/injection, schedule: Q04DX003 (ip), vehicle: saline 105 % of control

Cc1nc(N)sc1N=Nc1cccc(Cl)c1Cl
inactive: dose: 75.0 mg/kg/injection, schedule: Q01DX001 (ip), vehicle: saline 88 % of control | dose: 150.0 mg/kg/injection, schedule: Q01DX001 (ip), vehicle: saline 92 % of control | dose: 300.0 mg/kg/injection, schedule: Q01DX001 (ip), vehicle: saline 93 % of control

COc1cc2ccnc(Cc3ccccc3)c2cc1OC
inactive: [1] 103 % of control | dose: 100.0 mg/kg/injection, schedule: Q01DX009 (ip), vehicle: saline with Tween-80 93 % of control and 94 % of control | dose: 100.0 mg/kg/injection, schedule: Q04DX003 (ip), vehicle: saline with Tween-80 102 % of control | dose: 200.0 mg/kg/injection, schedule: Q01DX009 (ip), vehicle: saline with Tween-80 88 % of control | dose: 200.0 mg/kg/injection, schedule: Q04DX003 (ip), vehicle: saline with Tween-80 100 % of control

CCC(C)C(CCCCN(C)C)(CNC(=O)CN(CC)CC)c1cccc2ccccc12 (stereo not drawn)
inactive: dose: 100.0 mg/kg/injection, schedule: Q01DX009 (ip), vehicle: saline 99 % of control

Cc1ccc(O)c(C(=O)c2ccccc2)c1
inactive: dose: 50.0 mg/kg/injection, schedule: Q01DX001 (ip), vehicle: carboxymethylcellulose (CMC) 96 % of control | dose: 100.0 mg/kg/injection, schedule: Q01DX001 (ip), vehicle: carboxymethylcellulose (CMC) 99 % of control | dose: 200.0 mg/kg/injection, schedule: Q01DX001 (ip), vehicle: carboxymethylcellulose (CMC) 89 % of control | dose: 400.0 mg/kg/injection, schedule: Q01DX001 (ip), vehicle: carboxymethylcellulose (CMC) 94 % of control

CC(=O)N=C(N)N(/N=C(C)\C=N\N(C(C)=O)C(N)=NC(C)=O)C(C)=O
inactive: dose: 15.0 mg/kg/injection, schedule: Q01DX Z (ip), vehicle: carboxymethylcellulose (CMC) 96 % of control | dose: 30.0 mg/kg/injection, schedule: Q01DX Z (ip), vehicle: carboxymethylcellulose (CMC) 96 % of control | dose: 60.0 mg/kg/injection, schedule: Q01DX Z (ip), vehicle: carboxymethylcellulose (CMC) 93 % of control and 91 % of control | dose: 120.0 mg/kg/injection, schedule: Q01DX Z (ip), vehicle: carboxymethylcellulose (CMC) 97 % of control and 90 % of control | dose: 240.0 mg/kg/injection, schedule: Q01DX Z (ip), vehicle: carboxymethylcellulose (CMC) 92 % of control | dose: 480.0 mg/kg/injection, schedule: Q01DX Z (ip), vehicle: carboxymethylcellulose (CMC) 94 % of control
